We go through 7 molecules from PMC7689250, “Synthetic Peptide Libraries Designed From a Minimal Alpha-Helical Domain of AS-48-Bacteriocin Homologs Exhibit Potent Antibacterial Activity” (Frontiers in Microbiology, 2020).

The term MBC denotes the smallest concentration meeting the test's criterion for killing. By MIC is commonly meant the lowest concentration found to suppress growth.

Structures are written as SMILES. Where two headings read alike, the source gives them in different places. Residues, ends and D or L forms follow the SMILES beside them.

The test system of one series is S. aureus (USA300). In kind it is cell-based, Staphylococcus aureus. The following applies: for MBC: USA300; for MIC: USA300, 16 h. An outline of the steps:
(§1)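 MIC in Mueller-Hinton broth with 1 × 10^6 CFU/mL bacteria, overnight cultures grown first in LB (E. coli, P. aeruginosa, S. aureus) or Todd-Hewitt (S. pyogenes); growth read as OD 600. Library members screened at half the parent peptide MIC; MBC as lowest concentration giving no colonies after plating MIC wells, 37°C overnight.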

The next series relates to P. aeruginosa (PAO1). The class given is cell-based, Pseudomonas aeruginosa. To be noted: for MBC: PAO1; for MIC: PAO1, 16 h. An outline of the steps: as §1
Another series deals with S. pyogenes (M1). The class given is cell-based, Streptococcus pyogenes. To be noted: for MBC: M1; for MIC: M1, 16 h. An outline of the steps:
as §1

A further series has as its system sheep erythrocytes. The class given is cell-based. The following applies: red cells of sheep, 1 h. Summed up: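 Washed defibrinated sheep blood, diluted 1:25 in PBS, incubated 1 h at 37 °C with peptide at the MIC-assay concentrations (sample:blood 1:10). Haemoglobin release read as supernatant absorbance at 450 nm; percent haemolysis normalised to PBS and 10% Triton controls.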

In a further series the test system is E. coli (BL21). In kind it is cell-based, Escherichia coli. An outline of the steps: as §1

With `CC[C@H](C)[C@H](NC(=O)[C@H](CCCNC(=N)N)NC(=O)[C@H](CC(N)=O)NC(=O)[C@@H](NC(=O)CNC(=O)[C@H](C)N)[C@@H](C)O)C(=O)N[C@@H](C)C(=O)N[C@@H](CCCCN)C(=O)N[C@@H](CCC(=O)O)C(=O)N[C@@H](CC(C)C)C(=O)N[C@@H](CCCNC(=N)N)C(=O)N[C@@H](CCCNC(=N)N)C(=O)N[C@@H](Cc1ccc(O)cc1)C(=O)N[C@H](C(=O)N[C@@H](CCCNC(=N)N)C(=O)N[C@@H](CCCCN)C(=O)N[C@H](C(=O)NCC(=O)N[C@@H](CCCNC(=N)N)C(=O)N[C@H](C(=O)N[C@@H](CCCCN)C(=O)N[C@@H](CCCNC(=N)N)C(=O)N[C@@H](CCCCN)C(=O)N[C@@H](C)C(=O)N[C@@H](Cc1c[nH]c2ccccc12)C(=O)O)[C@@H](C)CC)C(C)C)[C@@H](C)CC` [Syn-sordellicin-80] (H-AGTNRIAKELRRYIRKVGRIKRKAW-OH; N-terminus and C-terminus assumed), the MBC in the series with S. aureus (USA300) was 64 µM; in the series on P. aeruginosa (PAO1), 16 µM; in the series on S. pyogenes (M1), 2 µM; with E. coli (BL21) (BL21), 0.5 µM. Moreover, the MIC was found to be 64 µM in the series with S. aureus (USA300), 16 µM in the series with P. aeruginosa (PAO1), 2 µM with S. pyogenes (M1) and 0.25 µM with E. coli (BL21) (E. coli BL21). Also, in the series on sheep erythrocytes, the “Percent Hemolysis” value worked out at 11.3%.

In the case of `CC[C@H](C)[C@H](NC(=O)[C@H](CCCNC(=N)N)NC(=O)CNC(=O)[C@@H](NC(=O)[C@H](CCCCN)NC(=O)[C@H](CCCNC(=N)N)NC(=O)[C@@H](NC(=O)[C@H](Cc1ccc(O)cc1)NC(=O)[C@H](CCCNC(=N)N)NC(=O)[C@H](CCCNC(=N)N)NC(=O)[C@H](CC(C)C)NC(=O)[C@H](CCC(=O)O)NC(=O)[C@H](CCCCN)NC(=O)[C@H](C)NC(=O)[C@@H](NC(=O)[C@H](CCCNC(=N)N)NC(=O)[C@H](CC(N)=O)NC(=O)[C@@H](NC(=O)[C@H](CCCCN)NC(=O)[C@H](C)N)[C@@H](C)O)[C@@H](C)CC)[C@@H](C)CC)C(C)C)C(=O)N[C@@H](C)C(=O)N[C@@H](CCCNC(=N)N)C(=O)N[C@@H](CCCCN)C(=O)N[C@@H](C)C(=O)N[C@@H](Cc1c[nH]c2ccccc12)C(=O)O` [Syn-sordellicin-96] (H-AKTNRIAKELRRYIRKVGRIARKAW-OH; N-terminus and C-terminus assumed), the MBC in the series on S. aureus (USA300) is 32 µM; in the series with P. aeruginosa (PAO1), 16 µM; with S. pyogenes (M1), 0.5 µM; in the series with E. coli (BL21) (E. coli BL21), 0.25 µM. Also, the MIC in the series with S. aureus (USA300) amounted to 32 µM; in the series with P. aeruginosa (PAO1), 8 µM; with S. pyogenes (M1), 0.5 µM; in the series on E. coli (BL21) (E. coli BL21) it was 0.25 µM. The “Percent Hemolysis” value with sheep erythrocytes worked out at 14.6%.

Consider `CC[C@H](C)[C@H](NC(=O)[C@H](Cc1ccccc1)NC(=O)[C@H](C)NC(=O)[C@H](CCCCN)NC(=O)[C@H](CCCCN)NC(=O)[C@H](Cc1c[nH]c2ccccc12)NC(=O)[C@H](CCCNC(=N)N)NC(=O)[C@H](CCCCN)NC(=O)[C@H](CCCNC(=N)N)NC(=O)[C@H](CC(C)C)NC(=O)[C@H](CCC(=O)O)NC(=O)[C@H](CCC(=O)O)NC(=O)[C@H](CC(C)C)NC(=O)[C@H](CC(C)C)NC(=O)[C@H](Cc1ccc(O)cc1)NC(=O)[C@H](CCCCN)NC(=O)[C@@H](NC(=O)[C@H](CC(C)C)NC(=O)[C@H](C)NC(=O)[C@H](CCC(N)=O)NC(=O)[C@H](CCCNC(=N)N)NC(=O)CNC(=O)[C@H](C)N)[C@@H](C)O)C(=O)N[C@@H](C)C(=O)N[C@@H](Cc1c[nH]c2ccccc12)C(=O)O` [Syn-xiamencin-20] (H-AGRQALTKYLLEELRKRWKKAFIAW-OH; N-terminus and C-terminus assumed), for which the MBC in the series with S. aureus (USA300) was found to be 32 µM; in the series on P. aeruginosa (PAO1) it was 64 µM; in the series on S. pyogenes (M1), 2 µM; with E. coli (BL21) (BL21) it was 1 µM. Also, the MIC with S. aureus (USA300) amounted to 32 µM; in the series on P. aeruginosa (PAO1) it was 64 µM; with S. pyogenes (M1) it was 2 µM; in the series with E. coli (BL21) (BL21, 16 h), 1 µM. In addition, in the series with sheep erythrocytes, the “Percent Hemolysis” value was found to be 10.5%.

On to `CC[C@H](C)[C@H](NC(=O)[C@H](Cc1ccccc1)NC(=O)[C@H](C)NC(=O)[C@H](CCCCN)NC(=O)[C@H](CCCCN)NC(=O)CNC(=O)[C@H](CCCNC(=N)N)NC(=O)[C@H](CCCCN)NC(=O)[C@H](CCCNC(=N)N)NC(=O)[C@H](CC(C)C)NC(=O)[C@H](CCC(=O)O)NC(=O)[C@H](CCC(=O)O)NC(=O)[C@H](CCCCN)NC(=O)[C@H](CC(C)C)NC(=O)[C@H](Cc1ccc(O)cc1)NC(=O)[C@H](CC(C)C)NC(=O)[C@@H](NC(=O)[C@H](CC(C)C)NC(=O)[C@H](C)NC(=O)[C@H](CCC(N)=O)NC(=O)[C@H](CCCNC(=N)N)NC(=O)CNC(=O)[C@H](C)N)[C@@H](C)O)C(=O)N[C@@H](Cc1c[nH]c2ccccc12)C(=O)N[C@@H](Cc1c[nH]c2ccccc12)C(=O)O` [Syn-xiamencin-57] (H-AGRQALTLYLKEELRKRGKKAFIWW-OH; N-terminus and C-terminus assumed), for which the MBC in the series with S. aureus (USA300) was 32 µM; in the series with P. aeruginosa (PAO1), above 128 µM; in the series on S. pyogenes (M1), 8 µM; in the series on E. coli (BL21) (BL21) it was 16 µM. In addition, the MIC in the series with S. aureus (USA300) is 16 µM; with P. aeruginosa (PAO1) it was above 128 µM; with S. pyogenes (M1), 4 µM; in the series with E. coli (BL21) (BL21, 16 h), 16 µM. Also, the “Percent Hemolysis” value in the series on sheep erythrocytes was found to be 17.0%.

`CC[C@H](C)[C@H](NC(=O)[C@H](Cc1ccccc1)NC(=O)[C@H](C)NC(=O)[C@H](CCCCN)NC(=O)[C@H](CCCCN)NC(=O)CNC(=O)[C@H](CCCNC(=N)N)NC(=O)[C@H](CCCCN)NC(=O)[C@H](CCCNC(=N)N)NC(=O)[C@H](CC(C)C)NC(=O)[C@H](CCC(=O)O)NC(=O)[C@H](CCC(=O)O)NC(=O)[C@H](CC(C)C)NC(=O)[C@H](CC(C)C)NC(=O)[C@H](Cc1ccc(O)cc1)NC(=O)[C@H](CCCCN)NC(=O)[C@@H](NC(=O)[C@H](CC(C)C)NC(=O)[C@H](C)NC(=O)[C@H](CCC(N)=O)NC(=O)[C@H](CCCNC(=N)N)NC(=O)CNC(=O)[C@H](C)N)[C@@H](C)O)C(=O)N[C@@H](Cc1c[nH]c2ccccc12)C(=O)N[C@@H](Cc1c[nH]c2ccccc12)C(=O)O` [Syn-xiamencin-60] (H-AGRQALTKYLLEELRKRGKKAFIWW-OH; N-terminus and C-terminus assumed): the MBC was above 128 µM in the series on S. aureus (USA300), above 128 µM in the series on P. aeruginosa (PAO1), 4 µM with S. pyogenes (M1) and 8 µM in the series with E. coli (BL21) (BL21). The MIC with S. aureus (USA300) is above 128 µM; in the series on P. aeruginosa (PAO1), above 128 µM; with S. pyogenes (M1), 2 µM; in the series on E. coli (BL21) (BL21, 16 h), 4 µM. For the same molecule, the “Percent Hemolysis” value with sheep erythrocytes came to 10.9%.

As to `CC[C@H](C)[C@H](NC(=O)[C@H](Cc1ccccc1)NC(=O)[C@H](C)NC(=O)[C@H](CCCCN)NC(=O)[C@H](CCCCN)NC(=O)CNC(=O)[C@H](CCCNC(=N)N)NC(=O)[C@H](CCCCN)NC(=O)[C@H](CCCNC(=N)N)NC(=O)[C@H](CC(C)C)NC(=O)[C@H](Cc1ccc(O)cc1)NC(=O)[C@H](CCC(=O)O)NC(=O)[C@H](CCCCN)NC(=O)[C@H](CC(C)C)NC(=O)[C@H](CCC(=O)O)NC(=O)[C@H](CC(C)C)NC(=O)[C@@H](NC(=O)[C@H](CC(C)C)NC(=O)[C@H](CCCCN)NC(=O)[C@H](CCC(N)=O)NC(=O)[C@H](CCCNC(=N)N)NC(=O)CNC(=O)[C@H](C)N)[C@@H](C)O)C(=O)N[C@@H](C)C(=O)N[C@@H](Cc1c[nH]c2ccccc12)C(=O)O` [Syn-xiamencin-83] (H-AGRQKLTLELKEYLRKRGKKAFIAW-OH; N-terminus and C-terminus assumed), the MBC in the series on S. aureus (USA300) is above 128 µM; in the series on P. aeruginosa (PAO1), above 128 µM; in the series with S. pyogenes (M1), 4 µM; in the series on E. coli (BL21) (BL21), 32 µM. The MIC was above 128 µM with S. aureus (USA300); 128 µM in the series with P. aeruginosa (PAO1); 4 µM in the series on S. pyogenes (M1); 16 µM with E. coli (BL21) (BL21, 16 h). In addition, in the series on sheep erythrocytes, the “Percent Hemolysis” value worked out at 10.7%.

For the molecule `CC[C@H](C)[C@H](NC(=O)[C@H](Cc1ccccc1)NC(=O)[C@H](C)NC(=O)[C@H](CCCCN)NC(=O)[C@H](CCCCN)NC(=O)CNC(=O)[C@H](CCCNC(=N)N)NC(=O)[C@H](CCCCN)NC(=O)[C@H](CCCNC(=N)N)NC(=O)[C@H](CC(C)C)NC(=O)[C@H](CCC(=O)O)NC(=O)[C@H](CCC(=O)O)NC(=O)[C@H](CC(C)C)NC(=O)[C@H](CC(C)C)NC(=O)[C@H](Cc1ccc(O)cc1)NC(=O)[C@H](CCCCN)NC(=O)[C@@H](NC(=O)[C@H](CC(C)C)NC(=O)[C@H](C)NC(=O)[C@H](CCC(N)=O)NC(=O)[C@H](CCCNC(=N)N)NC(=O)[C@H](CCCCN)NC(=O)[C@H](C)N)[C@@H](C)O)C(=O)N[C@@H](C)C(=O)N[C@@H](Cc1c[nH]c2ccccc12)C(=O)O` [Syn-xiamencin-92] (H-AKRQALTKYLLEELRKRGKKAFIAW-OH; N-terminus and C-terminus assumed), the MBC in the series with S. aureus (USA300) was found to be 8 µM; in the series with P. aeruginosa (PAO1) it was 16 µM; in the series on S. pyogenes (M1), 8 µM; with E. coli (BL21) (BL21), 8 µM. The MIC was found to be 8 µM in the series on S. aureus (USA300); 16 µM in the series on P. aeruginosa (PAO1); 4 µM in the series with S. pyogenes (M1); 4 µM with E. coli (BL21) (BL21, 16 h). Moreover, the “Percent Hemolysis” value with sheep erythrocytes came out at 18.8%.
